According to patent US9708314B2, “Heterocyclic amide compound” (NISSAN CHEMICAL INDUSTRIES, LTD., priority 2013, dated 2017):

Assays:
Assay type in all cases: in vivo
Scirpus juncoides = test: Test Example 2: herbicidal activity, application during weed generation in submerged conditions; conditions: Eighteenth Table; application herbicide amount 320 g/ha
Method in brief: (§1)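 Seeds were sown together in alluvial soil kept under 4 cm of water and grown at 25 °C to 30 °C. Once plants reached the one- to two-leaf stage, the diluted emulsion was applied to the water surface at a predetermined g/ha amount, and effects were rated 0–5 after three weeks.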

[1] = system: Echinochloa oryzacola Vasing.; test: as above; conditions: Eighteenth Table; application herbicide amount 320 g/ha
Method in brief: as §1

Monochoria vaginalis = test: as above; conditions: Eighteenth Table; application herbicide amount 320 g/ha
Method in brief: as §1

[2] = system: Echinochloa crus-galli var. crus-galli; test: Test Example 3: herbicidal effect by application to foliage (Wagner pot, water depth 0.1-0.5 cm); conditions: Nineteenth Table; application to foliage; application herbicide amount 320 g/ha
Method in brief: (§2)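 Post-emergence foliar application at a stated g/ha rate to plants grown 14 days from seed in alluvial soil, greenhouse 25–30 °C. Visual score after 3 weeks: 0 (≤5% effect) through 5 (≥90%).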

Leptochloa chinensis = test: as above; conditions: Nineteenth Table; application to foliage; application herbicide amount 320 g/ha
Method in brief: as §2

Cyperus difformis = test: as above; conditions: Nineteenth Table; application to foliage; application herbicide amount 320 g/ha
Method in brief: as §2

[3] = system: transplanted Oryza sativa; test: Test Example 1: effect on crop, application before weed generation in submerged conditions; conditions: Application herbicide amount 320 g/ha; Seventeenth Table
Method in brief: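 Water-diluted emulsion formulation is applied onto flood water (4 cm deep) covering alluvial soil on the day weed seeds are sown, after transplanting 2.5 leaf stage rice. Rates are expressed per hectare. Injury or control is graded 0–5 three weeks later.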

SMILES: CN(c1nnc2c(C(=O)Nc3nnco3)ccc(C(F)(F)F)n12)C1CCCCC1 [1-123]
- B (Scirpus juncoides) herbicidal ratio grade (Scirpus juncoides): 2 (Herbicidal ratio of 20% or more and less than 40%)
- A (Echinochloa oryzicola Vasing.) herbicidal ratio grade [1]: 3 (Herbicidal ratio of 40% or more and less than 70%)
- C (Monochoria vaginalis) herbicidal ratio grade (Monochoria vaginalis): 3 (Herbicidal ratio of 40% or more and less than 70%)
- H (herbicidal effect grade) [2]: 4 (Herbicidal ratio of 70% or more and less than 90%)
- D (herbicidal effect grade) (Leptochloa chinensis): 4 (Herbicidal ratio of 70% or more and less than 90%)
- E (herbicidal effect grade) (Cyperus difformis): 4 (Herbicidal ratio of 70% or more and less than 90%)
- a: transplanted Oryza sativa (effect on crop grade) [3]: 1 (Herbicidal ratio of 5% or more and less than 20%)

SMILES: Cc1nnc(NC(=O)c2ccc(C(F)(F)F)n3c(SCC(F)(F)F)nnc23)o1 [1-124]
- B (Scirpus juncoides) herbicidal ratio grade (Scirpus juncoides): 3 (Herbicidal ratio of 40% or more and less than 70%)
- A (Echinochloa oryzicola Vasing.) herbicidal ratio grade [1]: 3 (Herbicidal ratio of 40% or more and less than 70%)
- C (Monochoria vaginalis) herbicidal ratio grade (Monochoria vaginalis): 1 (Herbicidal ratio of 5% or more and less than 20%)
- H (herbicidal effect grade) [2]: 4 (Herbicidal ratio of 70% or more and less than 90%)
- D (herbicidal effect grade) (Leptochloa chinensis): 4 (Herbicidal ratio of 70% or more and less than 90%)
- E (herbicidal effect grade) (Cyperus difformis): 4 (Herbicidal ratio of 70% or more and less than 90%)
- a: transplanted Oryza sativa (effect on crop grade) [3]: 0 (Herbicidal ratio of 5% or less (almost no effect))

SMILES: CC(=O)CSc1nnc2c(C(=O)Nc3nnc(C)o3)ccc(C(F)(F)F)n12 [1-125]
- B (Scirpus juncoides) herbicidal ratio grade (Scirpus juncoides): 2 (Herbicidal ratio of 20% or more and less than 40%)
- A (Echinochloa oryzicola Vasing.) herbicidal ratio grade [1]: 0 (Herbicidal ratio of 5% or less (almost no effect))
- C (Monochoria vaginalis) herbicidal ratio grade (Monochoria vaginalis): 1 (Herbicidal ratio of 5% or more and less than 20%)
- H (herbicidal effect grade) [2]: 5 (Herbicidal ratio of 90% or more (almost completely withered))
- D (herbicidal effect grade) (Leptochloa chinensis): 4 (Herbicidal ratio of 70% or more and less than 90%)
- E (herbicidal effect grade) (Cyperus difformis): 3 (Herbicidal ratio of 40% or more and less than 70%)
- a: transplanted Oryza sativa (effect on crop grade) [3]: 0 (Herbicidal ratio of 5% or less (almost no effect))

SMILES: Cc1nnc(NC(=O)c2ccc(C(F)(F)F)n3c(SCC4OCCO4)nnc23)o1 [1-126]
- B (Scirpus juncoides) herbicidal ratio grade (Scirpus juncoides): 3 (Herbicidal ratio of 40% or more and less than 70%)
- A (Echinochloa oryzicola Vasing.) herbicidal ratio grade [1]: 1 (Herbicidal ratio of 5% or more and less than 20%)
- C (Monochoria vaginalis) herbicidal ratio grade (Monochoria vaginalis): 3 (Herbicidal ratio of 40% or more and less than 70%)
- H (herbicidal effect grade) [2]: 4 (Herbicidal ratio of 70% or more and less than 90%)
- D (herbicidal effect grade) (Leptochloa chinensis): 4 (Herbicidal ratio of 70% or more and less than 90%)
- E (herbicidal effect grade) (Cyperus difformis): 4 (Herbicidal ratio of 70% or more and less than 90%)
- a: transplanted Oryza sativa (effect on crop grade) [3]: 0 (Herbicidal ratio of 5% or less (almost no effect))

SMILES: COCCN(C)c1nnc2c(C(=O)Nc3nnc(C)o3)ccc(C(F)(F)F)n12 [1-129]
- B (Scirpus juncoides) herbicidal ratio grade (Scirpus juncoides): 4 (Herbicidal ratio of 70% or more and less than 90%)
- A (Echinochloa oryzicola Vasing.) herbicidal ratio grade [1]: 3 (Herbicidal ratio of 40% or more and less than 70%)
- C (Monochoria vaginalis) herbicidal ratio grade (Monochoria vaginalis): 3 (Herbicidal ratio of 40% or more and less than 70%)
- H (herbicidal effect grade) [2]: 5 (Herbicidal ratio of 90% or more (almost completely withered))
- D (herbicidal effect grade) (Leptochloa chinensis): 5 (Herbicidal ratio of 90% or more (almost completely withered))
- E (herbicidal effect grade) (Cyperus difformis): 4 (Herbicidal ratio of 70% or more and less than 90%)
- a: transplanted Oryza sativa (effect on crop grade) [3]: 1 (Herbicidal ratio of 5% or more and less than 20%)

SMILES: Cc1nnc(NC(=O)c2ccc(C(F)(F)F)n3c(NCC(F)(F)F)nnc23)o1 [1-131]
- B (Scirpus juncoides) herbicidal ratio grade (Scirpus juncoides): 1 (Herbicidal ratio of 5% or more and less than 20%)
- A (Echinochloa oryzicola Vasing.) herbicidal ratio grade [1]: 0 (Herbicidal ratio of 5% or less (almost no effect))
- C (Monochoria vaginalis) herbicidal ratio grade (Monochoria vaginalis): 0 (Herbicidal ratio of 5% or less (almost no effect))
- H (herbicidal effect grade) [2]: 4 (Herbicidal ratio of 70% or more and less than 90%)
- D (herbicidal effect grade) (Leptochloa chinensis): 4 (Herbicidal ratio of 70% or more and less than 90%)
- E (herbicidal effect grade) (Cyperus difformis): 3 (Herbicidal ratio of 40% or more and less than 70%)
- a: transplanted Oryza sativa (effect on crop grade) [3]: 0 (Herbicidal ratio of 5% or less (almost no effect))

SMILES: Cc1nnc(NC(=O)c2ccc(C(F)(F)F)n3c(N(C)C(C)C)nnc23)o1 [1-132]
- B (Scirpus juncoides) herbicidal ratio grade (Scirpus juncoides): 4 (Herbicidal ratio of 70% or more and less than 90%)
- A (Echinochloa oryzicola Vasing.) herbicidal ratio grade [1]: 4 (Herbicidal ratio of 70% or more and less than 90%)
- C (Monochoria vaginalis) herbicidal ratio grade (Monochoria vaginalis): 4 (Herbicidal ratio of 70% or more and less than 90%)
- H (herbicidal effect grade) [2]: 5 (Herbicidal ratio of 90% or more (almost completely withered))
- D (herbicidal effect grade) (Leptochloa chinensis): 5 (Herbicidal ratio of 90% or more (almost completely withered))
- E (herbicidal effect grade) (Cyperus difformis): 4 (Herbicidal ratio of 70% or more and less than 90%)
- a: transplanted Oryza sativa (effect on crop grade) [3]: 2 (Herbicidal ratio of 20% or more and less than 40%)

SMILES: Cc1nnc(NC(=O)c2ccc(C(F)(F)F)n3c(N(C)C4CCCCC4)nnc23)o1 [1-133]
- B (Scirpus juncoides) herbicidal ratio grade (Scirpus juncoides): 2 (Herbicidal ratio of 20% or more and less than 40%)
- A (Echinochloa oryzicola Vasing.) herbicidal ratio grade [1]: 2 (Herbicidal ratio of 20% or more and less than 40%)
- C (Monochoria vaginalis) herbicidal ratio grade (Monochoria vaginalis): 3 (Herbicidal ratio of 40% or more and less than 70%)
- H (herbicidal effect grade) [2]: 4 (Herbicidal ratio of 70% or more and less than 90%)
- D (herbicidal effect grade) (Leptochloa chinensis): 2 (Herbicidal ratio of 20% or more and less than 40%)
- E (herbicidal effect grade) (Cyperus difformis): 0 (Herbicidal ratio of 5% or less (almost no effect))
- a: transplanted Oryza sativa (effect on crop grade) [3]: 0 (Herbicidal ratio of 5% or less (almost no effect))

SMILES: CCN(C)c1nnc2c(C(=O)Nc3nnc(C)o3)ccc(C(F)(F)F)n12 [1-134]
- B (Scirpus juncoides) herbicidal ratio grade (Scirpus juncoides): 3 (Herbicidal ratio of 40% or more and less than 70%)
- A (Echinochloa oryzicola Vasing.) herbicidal ratio grade [1]: 1 (Herbicidal ratio of 5% or more and less than 20%)
- C (Monochoria vaginalis) herbicidal ratio grade (Monochoria vaginalis): 3 (Herbicidal ratio of 40% or more and less than 70%)
- H (herbicidal effect grade) [2]: 5 (Herbicidal ratio of 90% or more (almost completely withered))
- D (herbicidal effect grade) (Leptochloa chinensis): 4 (Herbicidal ratio of 70% or more and less than 90%)
- E (herbicidal effect grade) (Cyperus difformis): 2 (Herbicidal ratio of 20% or more and less than 40%)
- a: transplanted Oryza sativa (effect on crop grade) [3]: 0 (Herbicidal ratio of 5% or less (almost no effect))

SMILES: CCN(CC)c1nnc2c(C(=O)Nc3nnc(C)o3)ccc(C(F)(F)F)n12 [1-135]
- B (Scirpus juncoides) herbicidal ratio grade (Scirpus juncoides): 2 (Herbicidal ratio of 20% or more and less than 40%)
- A (Echinochloa oryzicola Vasing.) herbicidal ratio grade [1]: 2 (Herbicidal ratio of 20% or more and less than 40%)
- C (Monochoria vaginalis) herbicidal ratio grade (Monochoria vaginalis): 3 (Herbicidal ratio of 40% or more and less than 70%)
- H (herbicidal effect grade) [2]: 5 (Herbicidal ratio of 90% or more (almost completely withered))
- D (herbicidal effect grade) (Leptochloa chinensis): 4 (Herbicidal ratio of 70% or more and less than 90%)
- E (herbicidal effect grade) (Cyperus difformis): 2 (Herbicidal ratio of 20% or more and less than 40%)
- a: transplanted Oryza sativa (effect on crop grade) [3]: 1 (Herbicidal ratio of 5% or more and less than 20%)

SMILES: Cc1nnc(NC(=O)c2ccc(C(F)(F)F)n3c(N4CCCC4)nnc23)o1 [1-136]
- B (Scirpus juncoides) herbicidal ratio grade (Scirpus juncoides): 2 (Herbicidal ratio of 20% or more and less than 40%)
- A (Echinochloa oryzicola Vasing.) herbicidal ratio grade [1]: 0 (Herbicidal ratio of 5% or less (almost no effect))
- C (Monochoria vaginalis) herbicidal ratio grade (Monochoria vaginalis): 2 (Herbicidal ratio of 20% or more and less than 40%)
- H (herbicidal effect grade) [2]: 4 (Herbicidal ratio of 70% or more and less than 90%)
- D (herbicidal effect grade) (Leptochloa chinensis): 4 (Herbicidal ratio of 70% or more and less than 90%)
- E (herbicidal effect grade) (Cyperus difformis): 0 (Herbicidal ratio of 5% or less (almost no effect))
- a: transplanted Oryza sativa (effect on crop grade) [3]: 1 (Herbicidal ratio of 5% or more and less than 20%)

SMILES: CCN(C)c1nnc2c(C(=O)Nc3nnco3)ccc(C(F)(F)F)n12 [1-137]
- B (Scirpus juncoides) herbicidal ratio grade (Scirpus juncoides): 3 (Herbicidal ratio of 40% or more and less than 70%)
- A (Echinochloa oryzicola Vasing.) herbicidal ratio grade [1]: 3 (Herbicidal ratio of 40% or more and less than 70%)
- C (Monochoria vaginalis) herbicidal ratio grade (Monochoria vaginalis): 3 (Herbicidal ratio of 40% or more and less than 70%)
- H (herbicidal effect grade) [2]: 5 (Herbicidal ratio of 90% or more (almost completely withered))
- D (herbicidal effect grade) (Leptochloa chinensis): 5 (Herbicidal ratio of 90% or more (almost completely withered))
- E (herbicidal effect grade) (Cyperus difformis): 4 (Herbicidal ratio of 70% or more and less than 90%)
- a: transplanted Oryza sativa (effect on crop grade) [3]: 3 (Herbicidal ratio of 40% or more and less than 70%)

SMILES: CCN(CC)c1nnc2c(C(=O)Nc3nnco3)ccc(C(F)(F)F)n12 [1-138]
- B (Scirpus juncoides) herbicidal ratio grade (Scirpus juncoides): 3 (Herbicidal ratio of 40% or more and less than 70%)
- A (Echinochloa oryzicola Vasing.) herbicidal ratio grade [1]: 3 (Herbicidal ratio of 40% or more and less than 70%)
- C (Monochoria vaginalis) herbicidal ratio grade (Monochoria vaginalis): 3 (Herbicidal ratio of 40% or more and less than 70%)
- H (herbicidal effect grade) [2]: 5 (Herbicidal ratio of 90% or more (almost completely withered))
- D (herbicidal effect grade) (Leptochloa chinensis): 5 (Herbicidal ratio of 90% or more (almost completely withered))
- E (herbicidal effect grade) (Cyperus difformis): 4 (Herbicidal ratio of 70% or more and less than 90%)
- a: transplanted Oryza sativa (effect on crop grade) [3]: 2 (Herbicidal ratio of 20% or more and less than 40%)
